Results on 13 compounds are retold here after patent publication US20060194782A1, “Pharmacologically active imidazo[4,5-c] pyridines” (Altana Pharma AG, priority 2003, published 2006).

The subject of data set [1] is pentagastrin-stimulated acid secretion of the perfused rat stomach. As to the kind of experiment: Pentagastrin-stimulated acid secretion of the perfused rat stomach after intraduodenal administration. The data set is classed as in vivo. The note with it: anesthetized CD rat, dose 1.0 μmol/kg i.d. The text has this:
Testing of the Secretion on the Perfused Rat Stomach
In Table A which follows, the influence of the compounds of the formula 1 according to aspect 3 of the invention on the pentagastrin-stimulated acid secretion of the perfused rat stomach after intraduodenal
The abdomen of anesthetized rats(CD rat, female, 200-250 g; 1.5 g/kg i.m. urethane) was opened after tracheotomy by a median upper abdominal incision and a PVC catheter was fixed transorally in the esophagus and another via the pylorus such that the ends of the tubes just projected into the gastric lumen. The catheter leading from the pylorus led outward into the right abdominal wall through a side opening.
After thorough rinsing (about 50-100 ml), warm (37° C.) physiological NaCl solution was continuously passed through the stomach (0.5 ml/min, pH 6.8-6.9; Braun-Unita I). The pH (pH meter 632, glass electrode EA 147; φ=5 mm, Metrohm) and, by titration with a freshly prepared 0.01 N NaOH solution to pH 7 (Dosimat 665 Metrohm), the secreted HCl were determined in the effluent in each case collected at an interval of 15 minutes.
The gastric secretion was stimulated by continuous infusion of 1 μg/kg (=1.65 ml/h) of i.v. pentagastrin (left femoral vein) about 30 min after the end of the operation (i.e. after determination of 2 preliminary fractions). The substances to be tested were administered intraduodenally in a 2.5 ml/kg liquid volume 60 min after the start of the continuous pentagastrin infusion.
The body temperature of the animals was kept at a constant 37.8-38° C. by infrared irradiation and heat pads (automatic, stepless control by means of a rectal temperature sensor).

One may read the melting point as the temperature, or range, at which the solid turns liquid. Turning to `CCOC(=O)c1cc2c(nc(C)n2C)c(NCc2c(C)cccc2CC)n1` [Example 12, 4-(2-Ethyl-6-methyl-benzylamino)-1,2-dimethyl-1H-imidazo[4,5-c]pyridine-6-carboxylic Acid Ethyl Ester], the melting point was > 111 °C (dec.).

As for `CCc1cccc(C)c1CNc1nc(C(=O)N(C)C)cc2[nH]c(C)nc12` [Example 16, 4-(2-Ethyl-6-methyl-benzylamino)-2-methyl-1H-imidazo[4,5-c]pyridine-6-carboxylic Acid Dimethyl-amide], the melting point lay within 207 to 208 °C. Also, the “Inhibition of acid secretion” value in data set [1] is over 30%.

The compound `CCc1cccc(C)c1CNc1nc(OCCOC)cc2c1nc(C)n2C` [Example 14, (2-Ethyl-6-methyl-benzyl)-[6-(2-methoxy-ethoxy)-1,2-dimethyl-1H-imidazo[4,5-c]pyridin-4-yl]-amine] showed a melting point of 105 °C.

In turn, `CCc1cccc(C)c1NCc1nccc2c1nc(C)n2C` [Example 1, (1,2-Dimethyl-1H-imidazo[4,5-c]pyridin-4-ylmethyl)-(2-ethyl-6-methyl-phenyl)-amine] had a melting point of 141 to 142 °C.

Turning to `Cc1nc2c(OCc3ccccc3Cl)nccc2n1C` [Example 8, 4-(2-Chloro-benzyloxy)-1,2-dimethyl-1H-imidazo[4,5-c]pyridine], the melting point lay within 180 to 181 °C.

`CCc1cccc(C)c1CNc1nc(C(N)=O)cc2c1nc(C)n2C` [Example 3, 4-(2-Ethyl-6-methyl-benzylamino)-1,2-dimethyl-1H-imidazo[4,5-c]pyridine-6-carboxylic Acid Amide] came in with a melting point of 264 to 266 °C. In addition, in data set [1], the “Inhibition of acid secretion” value is over 30%.

Turning to `Cc1nc2c(OC3CCc4ccccc43)nccc2n1C` (centres unmarked) [Example 10, 4-(Indan-1-yloxy)-1,2-dimethyl-1H-imidazo[4,5-c]pyridine], the melting point is 164 to 165 °C.

Turning to `CCc1cccc(C)c1CNc1nc(C(=O)NC)cc2c1nc(C)n2C` [Example 4, 4-(2-Ethyl-6-methyl-benzylamino)-1,2-dimethyl-1H-imidazo[4,5-c]pyridine-6-carboxylic Acid Methylamide], the melting point was in the range of 157 to 160 °C. Moreover, the “Inhibition of acid secretion” value in data set [1] is over 30%.

On to `CCc1cccc(C)c1CNc1nc(C(=O)N(C)C)cc2c1nc(C)n2C` [Example 2, 4-(2-Ethyl-6-methyl-benzylamino)-1,2-dimethyl-1H-imidazo[4,5-c]pyridine-6-carboxylic Acid Dimethylamide], for which the melting point lay within 204 to 206 °C. Also, the “Inhibition of acid secretion” value in data set [1] is over 30%.

`CCc1cccc(C)c1CNc1nc(C(=O)NCCO)cc2c1nc(C)n2C` [Example 5, 4-(2-Ethyl-6-methyl-benzylamino)-1,2-dimethyl-1H-imidazo[4,5-c]pyridine-6-carboxylic Acid (2-Hydroxy-ethyl)-amide] came in with a melting point of 208 to 209 °C.

For `CCc1cccc(C)c1CNc1nc(OC)cc2c1nc(C)n2C` [Example 15, (2-Ethyl-6-methyl-benzyl)-(6-methoxy-1,2-dimethyl-1H-imidazo[4,5-c]pyridin-4-yl)-amine], the melting point was in the range of 106 to 107 °C.

`Cc1nc2c(OCc3ccccc3)nccc2n1C` [Example 7, 4-Benzyloxy-1,2-dimethyl-1H-imidazo[4,5-c]pyridine]: the melting point was 115 to 116 °C.

`CCc1cccc(C)c1CNc1nc(C(=O)O)cc2c1nc(C)n2C` [Example 13, 4-(2-Ethyl-6-methyl-benzylamino)-1,2-dimethyl-1H-imidazo[4,5-c]pyridine-6-carboxylic Acid] registered a melting point of 233 to 236 °C.
